≈ marks a conversion by molar mass, not a printed value. Each block holds one molecule with its values, some of them ahead of it.
Columns and labels:
[1] = Prodrug conversion assessed as recombinant rat intestinal alkaline phosphatase-mediated compound dephosphorylation by measuring half life by UPLC-MS/MS analysis; type: ADME
[2] = physchem; details: HCl buffer, pH 1
Description: Aqueous solubility of the compound in pH 1 HCl buffer by RP-UPLC analysis

[3] = physchem; details: 30% CH3CN/acetate buffer, pH 4
Description: Half life in pH 4 30%CH3CN/acetate buffer at 50 mM by RP-UPLC analysis

[4] = physchem; details: acetate buffer, pH 4
Description: Aqueous solubility of the compound in pH 4 acetate buffer by RP-UPLC analysis

[5] = Prodrug conversion in cannulated Sprague-Dawley rat plasma assessed as atazanavir formation at 3 mg/kg equiv of atazanavir administered orally by UPLC/MS/MS analysis; type: ADME, organism-based; details: in vivo, po
[6] = Prodrug conversion assessed as recombinant human intestinal alkaline phosphatase-mediated compound dephosphorylation by measuring half life by UPLC-MS/MS analysis; type: ADME; details: isolated protein
[7] = physchem; details: 30% CH3CN/HCl buffer, pH 1
Description: Half life in pH 1 30%CH3CN/HCl buffer at 50 mM by RP-UPLC analysis

[8] = physchem; details: 30% CH3CN/phosphate buffer, pH 6.5
Description: Half life in pH 6.5 30%CH3CN/phosphate buffer at 50 mM by RP-UPLC analysis

[9] = physchem; details: phosphate buffer, pH 6.5
Description: Aqueous solubility of the compound in pH 6.5 phosphate buffer by RP-UPLC analysis

[10] = Half life in pH 2 30%CH3CN solution at 50 mM by RP-UPLC analysis; type: physicochemical
[11] = rat, in vivo, po, 3 mg/kg
[12] = rat, in vivo, po, 3 mg/kg; remark: listed apart in the source
[13] = rat, in vivo, po, 3 mg/kg; remark: listed apart in the source
Description: AUClast in cannulated Sprague-Dawley rat assessed as atazanavir level at 3 mg/kg equiv of atazanavir administered orally by UPLC/MS/MS analysis

[14] = Prodrug conversion assessed as calf intestinal alkaline phosphatase-mediated compound dephosphorylation by measuring half life by UPLC-MS/MS analysis; type: ADME, Bos taurus; details: cattle, isolated protein
[15] = biological target: T1, UDP-glucuronosyltransferase 1A1 (Rattus norvegicus, UniProt Q64550); test: Inhibition of recombinant rat UGT1A1 using beta-estradiol as substrate preincubated for 5 mins followed by substrate addition and measured after 40 mins by LC-MS/MS analysis; type: ADME
T1 sequence (Q64550 whole entry): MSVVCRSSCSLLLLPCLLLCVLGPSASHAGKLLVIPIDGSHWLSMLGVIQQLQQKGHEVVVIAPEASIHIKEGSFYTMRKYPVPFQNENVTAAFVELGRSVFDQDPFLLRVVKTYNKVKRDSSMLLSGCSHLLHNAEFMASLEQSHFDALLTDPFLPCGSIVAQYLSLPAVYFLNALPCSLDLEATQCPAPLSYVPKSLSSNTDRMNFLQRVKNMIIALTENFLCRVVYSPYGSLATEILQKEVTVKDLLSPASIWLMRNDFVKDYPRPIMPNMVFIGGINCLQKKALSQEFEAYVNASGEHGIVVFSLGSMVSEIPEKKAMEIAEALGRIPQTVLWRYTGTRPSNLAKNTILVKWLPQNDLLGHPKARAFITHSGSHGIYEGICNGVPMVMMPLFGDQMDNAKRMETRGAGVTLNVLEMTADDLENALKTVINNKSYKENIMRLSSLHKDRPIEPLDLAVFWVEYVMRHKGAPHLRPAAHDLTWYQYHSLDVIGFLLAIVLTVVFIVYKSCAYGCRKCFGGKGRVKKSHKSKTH

[16] = Aqueous solubility of the compound in pH 5 buffer by RP-UPLC analysis; type: physicochemical
[17] = biological target: T2, UDP-glucuronosyltransferase 1A1 (Homo sapiens, UniProt P22309); test: Inhibition of UGT1A1 in human liver microsomes using beta-estradiol as substrate preincubated for 5 mins followed by substrate addition and measured after 40 mins by LC-MS/MS analysis; type: ADME
T2 sequence (P22309 whole entry): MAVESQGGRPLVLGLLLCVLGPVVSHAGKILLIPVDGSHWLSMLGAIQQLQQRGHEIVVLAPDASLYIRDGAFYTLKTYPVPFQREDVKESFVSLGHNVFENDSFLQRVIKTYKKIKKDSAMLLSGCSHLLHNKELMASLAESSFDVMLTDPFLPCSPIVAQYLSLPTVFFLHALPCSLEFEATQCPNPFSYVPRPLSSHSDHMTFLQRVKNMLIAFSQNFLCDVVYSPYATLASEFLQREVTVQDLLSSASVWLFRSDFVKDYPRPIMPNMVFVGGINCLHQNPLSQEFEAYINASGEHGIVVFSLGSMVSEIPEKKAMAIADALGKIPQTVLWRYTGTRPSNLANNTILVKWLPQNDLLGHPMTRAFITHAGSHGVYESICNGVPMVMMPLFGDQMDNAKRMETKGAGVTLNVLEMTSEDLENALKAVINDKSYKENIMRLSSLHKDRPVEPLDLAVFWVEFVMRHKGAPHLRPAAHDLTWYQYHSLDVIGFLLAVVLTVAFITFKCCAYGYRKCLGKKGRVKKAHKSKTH

[18] = Aqueous solubility of the compound in pH 3 buffer by RP-UPLC analysis; type: physicochemical
[19] = Oral bioavailability in dog; type: ADME, organism-based, Canis lupus familiaris; details: in vivo
[20] = Prodrug conversion in intestinal homogenates of closed loop rat intestinal model assessed as atazanavir recovery at 1 mg/kg administered as cassette dose by LC/MS analysis; type: ADME, organism-based, Intestine; details: in vivo
[21] = biological target: T1, UDP-glucuronosyltransferase 1A1; test: Inhibition of UGT1A1 in rat liver microsomes using beta-estradiol as substrate preincubated for 5 mins followed by substrate addition and measured after 40 mins by LC-MS/MS analysis; type: ADME
[22] = physchem; details: phosphate buffer, pH 7.4
Description: Aqueous solubility of the compound in pH 7.4 phosphate buffer by RP-UPLC analysis

[23] = biological target: Protease (Human immunodeficiency virus 1, UniProt Q9YQ12)
Description: Inhibition of HIV1 protease activity

[24] = Drug recovery in feces of po dosed human; type: ADME, organism-based; details: faeces, read-out: Drug recovery
[25] = Aqueous solubility of the compound in pH 4 citrate buffer by RP-UPLC analysis; type: physicochemical
[26] = Prodrug conversion in mesenteric vein plasma of closed loop rat intestinal model assessed as atazanavir recovery at 1 mg/kg administered as cassette dose by LC/MS analysis; type: ADME, organism-based; details: in vivo
[27] = Oral bioavailability in rat; type: ADME, organism-based; details: in vivo
[28] = Elimination half life in rat hepatocytes at 1 uM in absence of esterase inhibitor PMSF/CYP450 inhibitor ABT; type: ADME, cell-based, Hepatocyte; details: read-out: beta t1/2
[29] = in vitro; details: human, Caco-2
Description: Efflux ratio of apparent permeability across basolateral to apical side over apical to basolateral side in human Caco2 cells

[30] = in vitro; details: human, Caco-2; remark: listed apart in the source
Description: Apparent permeability across apical to basolateral side in human Caco2 cells at 2 uM

[31] = Dissociation constant, pKa of the compound; type: physicochemical
[32] = test system: Human immunodeficiency virus 1; test: microbe, parasite or virus in culture; details: Human immunodeficiency virus 1, NL4-3, MT2, 96 h
Description: Antiviral activity against HIV1 NL4-3 infected in human MT2 cells assessed as reduction in viral yield measured after 4 days by EnduRen live cell substrate based luciferase reporter gene assay

[33] = Drug recovery in feces of po dosed dog; type: ADME, organism-based, Canis lupus familiaris; details: faeces, read-out: Drug recovery
[34] = biological target: T2, UDP-glucuronosyltransferase 1A1; test: Inhibition of recombinant human UGT1A1 using bilirubin as substrate preincubated for 5 mins followed by substrate addition and measured after 40 mins by LC-MS/MS analysis; type: ADME
[35] = Prodrug conversion in intestinal content of closed loop rat intestinal model assessed as atazanavir recovery at 1 mg/kg administered as cassette dose by LC/MS analysis; type: ADME, organism-based; details: in vivo
[36] = Drug recovery in feces of po dosed rat; type: ADME, organism-based; details: faeces, read-out: Drug recovery
[37] = in vitro; details: human, Caco-2; remark: listed apart in the source
Description: Apparent permeability across basolateral to apical side in human Caco2 cells at 2 uM

Chain of Protease (Q9YQ12 whole entry): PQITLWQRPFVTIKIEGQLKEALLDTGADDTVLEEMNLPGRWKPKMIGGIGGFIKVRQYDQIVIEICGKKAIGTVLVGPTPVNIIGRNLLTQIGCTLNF

t1/2 [1]: > 2 h
solubility [2]: > 2650 µg/mL
half-life at 50000 µM [3]: 334 h
solubility [4]: 250 µg/mL (≈ 319 µM)
Drug metabolism [5]: Metabolite_Notdetected
t1/2 [6]: > 2 h
half-life at 50000 µM [7]: 334 h
half-life at 50000 µM [8]: 250 h
solubility [9]: > 2870 µg/mL
SMILES: COC(=O)N[C@H](C(=O)N[C@@H](Cc1ccccc1)[C@H](CN(Cc1ccc(-c2ccccn2)cc1)NC(=O)[C@@H](NC(=O)OC)C(C)(C)C)OP(=O)(O)O)C(C)(C)C

t1/2 [1]: > 0.167 h
half-life at 50000 µM [10]: 1.95 h
half-life at 50000 µM [3]: > 500 h
solubility [4]: > 930 µg/mL
Drug metabolism [5]: Metabolite_Detected
Cmax [11]: 257 nM
t1/2 [6]: 0.35 h
half-life at 50000 µM [7]: 0.2 h
Tmax [12]: 0.25 h
half-life at 50000 µM [8]: > 500 h
AUClast [13]: 0.277 µM·h
solubility [9]: > 1060 µg/mL
SMILES: COC(=O)N[C@H](C(=O)N[C@@H](Cc1ccccc1)[C@H](CN(Cc1ccc(-c2ccccn2)cc1)NC(=O)[C@@H](NC(=O)OC)C(C)(C)C)OCOP(=O)([O-])[O-])C(C)(C)C.[Na+].[Na+]

Drug metabolism [5]: Metabolite_Detected
t1/2 [14]: 0.22 h
SMILES: Cc1cccc(C)c1OCC(=O)N[C@@H](Cc1ccccc1)[C@@H](O)C[C@H](Cc1ccccc1)NC(=O)[C@H](C(C)C)N1CCCNC1=O [LOPINAVIR]

SMILES: COC(=O)N[C@H](C(=O)N[C@@H](Cc1ccccc1)[C@@H](O)CN(Cc1ccc(-c2ccccn2)cc1)NC(=O)[C@@H](NC(=O)OC)C(C)(C)C)C(C)(C)C [ATAZANAVIR]
IC50 [15]: 4200 nM
solubility [16]: < 1 µg/mL
IC50 [17]: 600 nM
solubility [18]: 28 µg/mL (≈ 39.7 µM)
bioavailability [19]: 36%
Drug recovery [20]: 1.6%
IC50 [21]: 3400 nM
solubility [22]: < 1 µg/mL
IC50 [23]: 0.3 nM
dose excreted [24]: 79%
solubility [25]: < 1 µg/mL
Drug recovery [26]: 1.4%
bioavailability [27]: 15%
half-life at 1 µM [28]: 0.45 h
efflux ratio [29]: > 14
Papp A→B at 2 µM [30]: < 1.5 ×10⁻⁶ cm/s
pKa [31]: 4.7
EC50 [32]: 0.7 nM
dose excreted [33]: 79%
IC50 [34]: 300 nM
Drug recovery [35]: 16.1%
dose excreted [36]: 39%
Papp B→A at 2 µM [37]: 20.3 ×10⁻⁶ cm/s

Source: ChEMBL document CHEMBL4390686, “Design, Synthesis, and Pharmacokinetic Evaluation of Phosphate and Amino Acid Ester Prodrugs for Improving the Oral Bioavailability of the HIV-1 Protease Inhibitor Atazanavir” (J Med Chem, 2019)
